Experimental data as given in PubChem BioAssay AID248 (DTP/NCI, 2004).
“And” between values parts separate entries of the source, which are not always exact repeats. Identical values can stand only once. Toxic doses and inconclusive results are not listed. Cut-off read from the data, not from the text of the source: active = T/C of 150% or more; inactive = T/C below 125%.

System: L1210 leukemia ip in BDF1 mice, survival T/C
Experiment: NCI In Vivo Anticancer Drug Screen. Data for tumor model L1210 Leukemia (intraperitoneal) in B6D2F1 (BDF1) mice
Conditions: endpoint: mean survival time, higher = longer survival
Outline: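 Survival endpoint. Drug-treated group vs vehicle group, expressed as T divided by C. Tumor passaged by transplantation.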

[1] = dose: 50.0 mg/kg/injection, schedule: Q01DX001 (ip), vehicle: carboxymethylcellulose (CMC)
[2] = dose: 100.0 mg/kg/injection, schedule: Q01DX001 (ip), vehicle: carboxymethylcellulose (CMC)
[3] = dose: 200.0 mg/kg/injection, schedule: Q01DX001 (ip), vehicle: carboxymethylcellulose (CMC)
[4] = dose: 400.0 mg/kg/injection, schedule: Q01DX001 (ip), vehicle: carboxymethylcellulose (CMC)
[5] = dose: 100.0 mg/kg/injection, schedule: Q01DX009 (ip), vehicle: Klucel (hydroxypropylcellulose) (HPC)
[6] = dose: 100.0 mg/kg/injection, schedule: Q04DX003 (ip), vehicle: Klucel (hydroxypropylcellulose) (HPC)
[7] = dose: 200.0 mg/kg/injection, schedule: Q01DX009 (ip), vehicle: Klucel (hydroxypropylcellulose) (HPC)
[8] = dose: 200.0 mg/kg/injection, schedule: Q04DX003 (ip), vehicle: Klucel (hydroxypropylcellulose) (HPC)
[9] = dose: 400.0 mg/kg/injection, schedule: Q04DX003 (ip), vehicle: Klucel (hydroxypropylcellulose) (HPC)
[10] = dose: 400.0 mg/kg/injection, schedule: Q01DX009 (ip), vehicle: Klucel (hydroxypropylcellulose) (HPC)
[11] = dose: 100.0 mg/kg/injection, schedule: Q04DX002 (ip), vehicle: saline with Tween-80
[12] = dose: 200.0 mg/kg/injection, schedule: Q04DX002 (ip), vehicle: saline with Tween-80
[13] = dose: 400.0 mg/kg/injection, schedule: Q04DX002 (ip), vehicle: saline with Tween-80
[14] = dose: 100.0 mg/kg/injection, schedule: Q01DX009 (ip), vehicle: saline with Tween-80
[15] = dose: 100.0 mg/kg/injection, schedule: Q04DX003 (ip), vehicle: saline with Tween-80
[16] = dose: 200.0 mg/kg/injection, schedule: Q01DX009 (ip), vehicle: saline with Tween-80
[17] = dose: 200.0 mg/kg/injection, schedule: Q04DX003 (ip), vehicle: saline with Tween-80
[18] = dose: 400.0 mg/kg/injection, schedule: Q01DX009 (ip), vehicle: saline with Tween-80
[19] = dose: 400.0 mg/kg/injection, schedule: Q04DX003 (ip), vehicle: saline with Tween-80
[20] = dose: 100.0 mg/kg/injection, schedule: Q01DX001 (ip), vehicle: saline
[21] = dose: 200.0 mg/kg/injection, schedule: Q01DX001 (ip), vehicle: saline
[22] = dose: 400.0 mg/kg/injection, schedule: Q01DX001 (ip), vehicle: saline

Measured: T/C

CC(C)CC(C)OB(OC(C)CC(C)C)OC(C)CC(C)C (stereo unspecified)
inactive: [1] 102 % of control | [2] 111 % of control | [3] 102 % of control | [4] 96 % of control

CC(=O)Nc1ccc(Br)cc1
inactive: [1] 92 % of control | [2] 93 % of control | [5] 103 % of control | [6] 98 % of control | [3] 93 % of control | [7] 113 % of control | [8] 104 % of control | [9] 106 % of control

CC(C)(C)NC(=O)CCC1C(NC(=O)C(C)(C)C)C2(Cl)C(Cl)=C(Cl)C1(Cl)C2(Cl)Cl (stereo unspecified)
inactive: [5] 90 % of control | [6] 92 % of control | [7] 90 % of control | [8] 92 % of control | [10] 90 % of control | [9] 93 % of control

NOC(=O)c1cccc(Cl)c1
inactive: [11] 94 % of control | [12] 105 % of control | [13] 96 % of control

C#CCOCC1CNC(=S)O1 (stereo unspecified)
inactive: [14] 100 % of control | [15] 95 % of control | [16] 98 % of control | [17] 111 % of control | [18] 96 % of control | [19] 97 % of control

O=C(O)C1C(C(=O)O)C23CC2(C(=O)O)C2(C(=O)O)CCC3=C3CCCC312 (stereo unspecified)
inactive: dose: 6.25 mg/kg/injection, schedule: Q01DX009 (ip), vehicle: saline 109 % of control | dose: 6.25 mg/kg/injection, schedule: Q04DX003 (ip), vehicle: saline 104 % of control | dose: 12.5 mg/kg/injection, schedule: Q01DX001 (ip), vehicle: saline 114 % of control | dose: 12.5 mg/kg/injection, schedule: Q01DX009 (ip), vehicle: saline 111 % of control | dose: 12.5 mg/kg/injection, schedule: Q04DX003 (ip), vehicle: saline 104 % of control | dose: 25.0 mg/kg/injection, schedule: Q01DX001 (ip), vehicle: saline 98 % of control | dose: 25.0 mg/kg/injection, schedule: Q04DX003 (ip), vehicle: saline 103 % of control

COc1ccc(CCCCC(=O)O)cc1O
inactive: [20] 103 % of control | [21] 103 % of control | [22] 107 % of control

O=c1cc(CNC23CC4CC(CC(C4)C2)C3)[nH]c(=O)[nH]1
inactive: [15] 96 % of control | [17] 96 % of control | [19] 89 % of control

CCN(CC)c1nc2ccccc2o1
inactive: [2] 102 % of control | [3] 91 % of control | [4] 91 % of control

C=C(C)C(=O)O (tested in a mixture with another compound)
inactive: dose: 100.0 mg/kg/injection, schedule: Q01DX Z (ip), vehicle: saline 105 % of control | dose: 200.0 mg/kg/injection, schedule: Q01DX Z (ip), vehicle: saline 89 % of control

O=C(Nc1cccc(C(F)(F)F)c1)Oc1ccc(F)cc1Cl
inactive: dose: 25.0 mg/kg/injection, schedule: Q01DX009 (ip), vehicle: gum acacia 100 % of control | dose: 50.0 mg/kg/injection, schedule: Q01DX009 (ip), vehicle: gum acacia 98 % of control | dose: 100.0 mg/kg/injection, schedule: Q01DX009 (ip), vehicle: gum acacia 88 % of control

CCN(CC)CCOC(=O)C(S)(c1ccccc1)c1ccccc1
inactive: dose: 75.0 mg/kg/injection, schedule: Q01DX001 (ip), vehicle: other 100 % of control

N#Cc1ccc(/C=C\c2ccc(C#N)cc2)cc1
inactive: dose: 0.6 mg/kg/injection, schedule: Q04DX002 (ip), vehicle: Klucel (hydroxypropylcellulose) (HPC) 104 % of control | dose: 1.2 mg/kg/injection, schedule: Q04DX002 (ip), vehicle: Klucel (hydroxypropylcellulose) (HPC) 104 % of control | dose: 2.5 mg/kg/injection, schedule: Q04DX002 (ip), vehicle: Klucel (hydroxypropylcellulose) (HPC) 97 % of control | dose: 50.0 mg/kg/injection, schedule: Q04DX002 (ip), vehicle: Klucel (hydroxypropylcellulose) (HPC) 104 % of control | dose: 100.0 mg/kg/injection, schedule: Q04DX002 (ip), vehicle: Klucel (hydroxypropylcellulose) (HPC) 104 % of control and 122 % of control | dose: 200.0 mg/kg/injection, schedule: Q04DX002 (ip), vehicle: Klucel (hydroxypropylcellulose) (HPC) 109 % of control and 110 % of control | dose: 400.0 mg/kg/injection, schedule: Q04DX002 (ip), vehicle: Klucel (hydroxypropylcellulose) (HPC) 98 % of control

CC(=O)OC12CCCC(=O)C1C1CC/C=C\CCC12 (stereo unspecified)
inactive: dose: 100.0 mg/kg/injection, schedule: Q01DX001 (ip), vehicle: Klucel (hydroxypropylcellulose) (HPC) 111 % of control | [5] 98 % of control | [6] 95 % of control | dose: 200.0 mg/kg/injection, schedule: Q01DX001 (ip), vehicle: Klucel (hydroxypropylcellulose) (HPC) 108 % of control | [7] 98 % of control | [8] 98 % of control | dose: 400.0 mg/kg/injection, schedule: Q01DX001 (ip), vehicle: Klucel (hydroxypropylcellulose) (HPC) 102 % of control | [10] 96 % of control | [9] 95 % of control

O=C(S)c1ccccc1.[Pb]
inactive: [11] 87 % of control | [12] 108 % of control

CN=C(N)c1ccc(S(=O)(=O)N=C(N)N)cc1
inactive: [20] 96 % of control | [21] 98 % of control | [22] 100 % of control

O=P(Nc1ccccc1)(N1CCCCC1)N1CCCCC1
inactive: [11] 101 % of control | [12] 101 % of control | [13] 108 % of control

COC(C)C(O)(C(N)=O)C(C)C (stereo unspecified)
inactive: [5] 98 % of control | [6] 101 % of control | [7] 98 % of control | [8] 101 % of control | [10] 102 % of control | [9] 97 % of control

O=S1(=O)c2ccccc2NC(c2ccc(Cl)cc2)C1c1ccccc1 (stereo unspecified)
inactive: dose: 100.0 mg/kg/injection, schedule: Q04DX003 (ip), vehicle: saline 95 % of control | dose: 200.0 mg/kg/injection, schedule: Q04DX003 (ip), vehicle: saline 89 % of control | dose: 400.0 mg/kg/injection, schedule: Q04DX003 (ip), vehicle: saline 97 % of control

COc1ccc(/C=C/C(=O)c2cc(O)cc(OC)c2)cc1
inactive: [14] 102 % of control | [15] 100 % of control | [16] 94 % of control | [17] 108 % of control | [18] 94 % of control | [19] 95 % of control

CCOC(=O)C(c1ccccc1)(c1ccccc1)c1ccccc1
inactive: dose: 6.25 mg/kg/injection, schedule: Q01DX009 (ip), vehicle: Klucel (hydroxypropylcellulose) (HPC) 90 % of control | dose: 12.5 mg/kg/injection, schedule: Q01DX009 (ip), vehicle: Klucel (hydroxypropylcellulose) (HPC) 92 % of control | dose: 25.0 mg/kg/injection, schedule: Q01DX009 (ip), vehicle: Klucel (hydroxypropylcellulose) (HPC) 95 % of control
